Experimental data reported in US8410145B2, “Insecticidal compounds” (Syngenta Crop Protection LLC, priority 2007, dated 2013).

Legend:
Assay type in all cases: in vivo
[1] = tested on: Spodoptera littoralis (Egyptian Cotton Leafworm); test: Spodoptera littoralis cotton leaf disc spray test; details: foliar, 72 h, 200 ppm spray on cotton leaf discs, L1 larvae, mortality, feeding behavior, growth regulation 3 DAT
Source text: (§1) Cotton leaf discs were placed on agar in a 24-well microtiter plate and sprayed with test solutions at an application rate of 200 ppm. After drying, the leaf discs were infested with 5 to L1 larvae. The samples were checked for mortality, feeding behavior, and growth regulation 3 days after treatment (DAT). The following compounds gave at least 80% control of Spodoptera littoralis: A1, A2, A3, A4, A6, A9, A10, A11, A12, A13, A14, A15, A16, A19, A20, A22, A23, A25, A26, A27, B1, B2, B3, B5, B6, B7, B8, B9, B11, B12, B13, B15, B16, B18, B19, B20, B21, B22, B24, B26, B27, B28, C1, C2, C3, C4, C5, C6, C7, C8, C9, C10, C12, C13, C16, C19, C20, C21, C22, C23, D1, D2, D3, D4, D5, D6, D7, D8, D9, D10, D11, D12, D13, D14, D15, D16, D17, D18, D19, D20, D21, D22, D23, D24. Heliothis virescens (Tobacco Budworm): Eggs (0-24 h old) were placed in 24-well microtiter plate on artificial diet and treated with test solutions at an application rate of 200 ppm (concentration in well 18 ppm) by pipetting. After an incubation period of 4 days, samples were checked for egg mortality, larval mortality, and growth regulation. The following compounds gave at least 80% control of Heliothis virescens: A1, A2, A3, A4, A13, A15, A17, A19, A20, A22, A23, A25, A26, A28, B1, B2, B3, B5, B6, B7, B9, B11, B13, B15, B18, B19, B20, B21, B25, B26, B27, B28, C1, C2, C3, C4, C5, C6, C7, C8, C9, C10, C12, C14, C16, C17, C19, C20, C21, C22, D1, D2, D3, D4, D5, D6, D7, D8, D9, D10, D11, D12, D13, D14, D15, D16, D17, D18, D19, D20, D21, D22, D23, E1, E2, E3, E4, E5. Plutella xylostella (Diamond Back Moth): 24-well microtiter plate (MTP) with artificial diet was treated with test solutions at an application rate of 200 ppm (concentration in well 18 ppm) by pipetting. After drying, the MTP's were infested with L2 larvae (7-12 per well). After an incubation period of 6 days, samples were checked for larval mortality and growth regulation. The following compounds gave at least 80% control of Plutella xylostella: A1, A3, A4, A10, All, A15, A19, A23, A25, B1, B2, B3, B5, B6, B7, B8, B9, B11, B13, B15, B18, B19, B20, B21, B26, B27, B28, C1, C2, C3, C4, C6, C7, C8, C9, C12, C16, C19, C20, C22, D1, D2, D3, D4, D5, D6, D7, D8, D9, D10, D12, D13, D14, D15, D16, D17, D18, D19, D20, D21, D22, D23, E1, E3, E5. Diabrotica balteata (Corn Root Worm): A 24-well microtiter plate (MTP) with artificial diet was treated with test solutions at an application rate of 200 ppm (concentration in well 18 ppm) by pipetting. After drying, the MTP's were infested with L2 larvae (6-10 per well). After an incubation period of 5 days, samples were checked for larval mortality and growth regulation. The following compounds gave at least 80% control of Diabrotica balteata: A2, A3, A4, A9, A11, A12, A13, A14, A15, A17, A19, A21, A22, A23, A24, A25, A26, B1, B2, B3, B6, B7, B8, B11, B13, B14, B15, B18, B19, B20, B21, B22, B26, B28, C1, C2, C3, C4, C5, C6, C7, C8, C9, C10, C12, C14, C15, C16, C19, C20, C21, C22, C23, C26, D1, D2, D4, D5, D6, D7, D8, D9, D10, D12, D14, D15, D16, D17, D18, D19, D20, D21, D22, D23, E2, E3, E5. Thrips tabaci (Onion Thrips): Sunflower leaf discs were placed on agar in a 24-well microtiter plate and sprayed with test solutions at an application rate of 200 ppm. After drying, the leaf discs were infested with an […] population of mixed ages. After an incubation period of 7 days, samples were checked for mortality. The following compounds gave at least 80% control of Thrips tabaci: B1, B7, B11, B15, B18, B19, B28, D1, D2, D3, D4, D5, D6, D7, D8, D9, D10, D12, D16, D18, D19, D20, D21, D23. Tetranychus urticae (Two-Spotted Spider Mite): Bean leaf discs on agar in 24-well microtiter plates were sprayed with test solutions at an application rate of 200 ppm. After drying, the leaf discs are infested with mite populations of mixed ages. 8 days later, discs are checked for egg mortality, larval mortality, and adult mortality. […]

[2] = tested on: Heliothis virescens (Tobacco Budworm); test: Heliothis virescens egg test on artificial diet; details: 96 h, 200 ppm (concentration in well 18 ppm), eggs 0-24 h old on artificial diet, egg mortality, larval mortality, growth regulation after 4 days
Source text: as §1

[3] = tested on: Plutella xylostella (Diamond Back Moth); test: Plutella xylostella larvae test on artificial diet; details: 144 h, 200 ppm (concentration in well 18 ppm), L2 larvae, larval mortality and growth regulation after 6 days
Source text: as §1

[4] = tested on: Diabrotica balteata (Corn Root Worm); test: Diabrotica balteata larvae test on artificial diet; details: 120 h, 200 ppm (concentration in well 18 ppm), L2 larvae, larval mortality and growth regulation after 5 days
Source text: as §1

[5] = tested on: Tetranychus urticae (Two-Spotted Spider Mite); test: Tetranychus urticae bean leaf disc spray test; details: foliar, 192 h, 200 ppm spray on bean leaf discs, mite populations of mixed ages, egg, larval and adult mortality 8 days later
Source text: as §1

[6] = tested on: Spodoptera littoralis, Heliothis virescens, Plutella xylostella, Diabrotica balteata, Thrips tabaci, Tetranychus urticae; test: Pesticidal tests, same protocols (all six pests taken together); details: same protocols as b207 (200 ppm), under the test conditions
Source text: as §1

[7] = tested on: Thrips tabaci (Onion Thrips); test: Thrips tabaci sunflower leaf disc spray test; details: foliar, 168 h, 200 ppm spray on sunflower leaf discs, population of mixed ages, mortality after 7 days
Source text: as §1

| SMILES | pest or weed control at 200 ppm [1] [%] | pest or weed control at 200 ppm [2] [%] | pest or weed control at 200 ppm [3] [%] | pest or weed control at 200 ppm [4] [%] | pest or weed control at 200 ppm [5] [%] | effect on mortality, feeding behavior, or growth regulation [6] | pest or weed control at 200 ppm [7] [%] |
| --- | --- | --- | --- | --- | --- | --- | --- |
| N#Cc1ccc(C(=O)Nc2cccc(C3=NOC(c4cc(Cl)cc(Cl)c4)(C(F)(F)F)C3)c2)cc1 (stereo not shown) [A4, 4-cyano-N-{3-[5-(3,5-dichloro-phenyl)-5-trifluoromethyl-4,5-dihydro-isoxazol-3-yl]phenyl}-benzamide] | ≥ 80 | ≥ 80 | ≥ 80 | ≥ 80 | ≥ 80 |  |  |
| O=C(CBr)Nc1cccc(C2=NOC(c3cc(Cl)cc(Cl)c3)(C(F)(F)F)C2)c1 (stereo not shown) [A8] |  |  |  |  |  | little or no effect |  |
| O=C(Nc1cccc(C2=NOC(c3cc(Cl)cc(Cl)c3)(C(F)(F)F)C2)c1F)c1ccccc1F (stereo not shown) [B1] | ≥ 80 | ≥ 80 | ≥ 80 | ≥ 80 |  |  | ≥ 80 |
| N#Cc1ccc(C(=O)Nc2cccc(C3=NOC(c4cc(Cl)cc(Cl)c4)(C(F)(F)F)C3)c2F)cc1 (stereo not shown) [B4] |  |  |  |  |  | little or no effect |  |
| O=C(Nc1cccc(C2=NOC(c3cc(Cl)cc(Cl)c3)(C(F)(F)F)C2)c1F)c1ccc([N+](=O)[O-])cc1 (stereo not shown) [B5] | ≥ 80 | ≥ 80 | ≥ 80 |  | ≥ 80 |  |  |
| O=C(Nc1cccc(C2=NOC(c3cc(Cl)cc(Cl)c3)(C(F)(F)F)C2)c1F)c1ccco1 (stereo not shown) [B10] |  |  |  |  |  | little or no effect |  |
| COc1ccccc1C(=O)Nc1cccc(C2=NOC(c3cc(Cl)cc(Cl)c3)(C(F)(F)F)C2)c1F (stereo not shown) [B15] | ≥ 80 | ≥ 80 | ≥ 80 | ≥ 80 |  |  | ≥ 80 |
| O=C(Nc1cccc(C2=NOC(c3cc(Cl)cc(Cl)c3)(C(F)(F)F)C2)c1F)c1ccc(F)cc1 (stereo not shown) [B17] |  |  |  |  |  | little or no effect |  |
| Cc1ccc(C(=O)Nc2cc(C3=NOC(c4cc(Cl)cc(Cl)c4)(C(F)(F)F)C3)ccc2F)cc1 (stereo not shown) [C9] | ≥ 80 | ≥ 80 | ≥ 80 | ≥ 80 | ≥ 80 |  |  |
| COc1ccccc1C(=O)Nc1cc(C2=NOC(c3cc(Cl)cc(Cl)c3)(C(F)(F)F)C2)ccc1F (stereo not shown) [C18] |  |  |  |  |  | little or no effect |  |
| O=C(Nc1cc(C2=NOC(c3cc(Cl)cc(Cl)c3)(C(F)(F)F)C2)ccc1F)c1ccc(F)cc1F (stereo not shown) [C24] |  |  |  |  |  | little or no effect |  |
| N#Cc1ccc(C(=O)Nc2cc(C3=NOC(c4cc(Cl)cc(Cl)c4)(C(F)(F)F)C3)ccc2C#N)cc1 (stereo not shown) [D1] | ≥ 80 | ≥ 80 | ≥ 80 | ≥ 80 | ≥ 80 |  | ≥ 80 |
| N#Cc1ccc(C2=NOC(c3cc(Cl)cc(Cl)c3)(C(F)(F)F)C2)cc1NC(=O)c1ccccc1 (stereo not shown) [D2] | ≥ 80 | ≥ 80 | ≥ 80 | ≥ 80 | ≥ 80 |  | ≥ 80 |
| N#Cc1ccc(C2=NOC(c3cc(Cl)cc(Cl)c3)(C(F)(F)F)C2)cc1NC(=O)c1ccccc1F (stereo not shown) [D5] | ≥ 80 | ≥ 80 | ≥ 80 | ≥ 80 |  |  | ≥ 80 |
| Cc1ccccc1C(=O)Nc1cc(C2=NOC(c3cc(Cl)cc(Cl)c3)(C(F)(F)F)C2)ccc1C#N (stereo not shown) [D6] | ≥ 80 | ≥ 80 | ≥ 80 | ≥ 80 | ≥ 80 |  | ≥ 80 |
| N#Cc1ccc(C2=NOC(c3cc(Cl)cc(Cl)c3)(C(F)(F)F)C2)cc1NC(=O)c1ccccc1Cl (stereo not shown) [D7] | ≥ 80 | ≥ 80 | ≥ 80 | ≥ 80 | ≥ 80 |  | ≥ 80 |
| N#Cc1ccc(C2=NOC(c3cc(Cl)cc(Cl)c3)(C(F)(F)F)C2)cc1NC(=O)c1ccc([N+](=O)[O-])cc1 (stereo not shown) [D8] | ≥ 80 | ≥ 80 | ≥ 80 | ≥ 80 | ≥ 80 |  | ≥ 80 |
| Cc1ccc(C(=O)Nc2cc(C3=NOC(c4cc(Cl)cc(Cl)c4)(C(F)(F)F)C3)ccc2C#N)cc1 (stereo not shown) [D9] | ≥ 80 | ≥ 80 | ≥ 80 | ≥ 80 | ≥ 80 |  | ≥ 80 |
| N#Cc1ccc(C2=NOC(c3cc(Cl)cc(Cl)c3)(C(F)(F)F)C2)cc1NC(=O)c1ccc(F)cc1 (stereo not shown) [D18] | ≥ 80 | ≥ 80 | ≥ 80 | ≥ 80 | ≥ 80 |  | ≥ 80 |
| N#Cc1ccc(C2=NOC(c3cc(Cl)cc(Cl)c3)(C(F)(F)F)C2)cc1NC(=O)c1ccc(F)cc1F (stereo not shown) [D23] | ≥ 80 | ≥ 80 | ≥ 80 | ≥ 80 |  |  | ≥ 80 |
